Patent publication US20230159486A1, “SUBSTITUTED THIOPHENECARBOXAMIDES AND ANALOGUES AS ANTIBACTERIALS AGENTS” (Bayer Aktiengesellschaft, priority 2018, published 2023)
Structures can show the parent of a compound that is named as a salt. Marks after values point to notes of the source that are not given here.

Columns and labels:
[1] = test system: Xanthomonas campestris pv. campestris; test: Xanthomonas campestris pv. campestris in vitro cell test (bacteria growth in liquid culture); type: cell-based; settings: 20 ppm of tested compound, 24 h of incubation
Procedure: Culture medium: LB broth medium (Luria Broth Miller) Sigma
Inoculum: bacteria suspension
Compounds to be tested were solubilized in DMSO and the solution used to prepare the required range of concentrations. The final concentration of DMSO used in the assay was ≤1%.
Inoculum was prepared from a pre-culture of bacteria grown in liquid medium and diluted to the desired optical density (OD).
Compounds were evaluated for their ability to inhibit bacteria growth in liquid culture assay. The compounds were added in the desired concentrations to culture medium containing the bacteria suspension. After 24 h of incubation, the efficacy of compounds was determined by spectrometric measurement of bacteria growth. Inhibition was determined by comparing the absorbance values in wells containing the compounds with the absorbance in control wells without compounds.

[2] = Log P by HPLC on reversed phase columns (EEC directive 79/831 Annex V.A8); type: physicochemical
Procedure: In the above tables, measurement of Log P values was performed according to EEC directive 79/831 Annex V.A8 by HPLC (High Performance Liquid Chromatography) on reversed phase columns with the following methods: • ^[a]
If more than one Log P value is available within the same method, all the values are given and separated by “+”.
Calibration was done with straight-chain alkan2-ones (with 3 to 16 carbon atoms) with known Log P values (measurement of Log P values using retention times with linear interpolation between successive alkanones). Lambda-max-values were determined using UV-spectra from 200 nm to 400 nm and the peak values of the chromatographic signals.

[3] = test system: Xanthomonas campestris pv. campestris; test: In vivo preventive test on Xanthomonas campestris pv. campestris (black rot on cabbage); settings: comparative Example C, same conditions as described in Example B; concentration not given
Procedure: The tested compounds were prepared by homogenization in a mixture of acetone/Dimethyl sulfoxide/Tween®, and then diluted with water to obtain the desired concentration.
The young plants of cabbage were treated by spraying the compound prepared as described above. Control plants were treated only with an aqueous solution of acetone/Dimethyl sulfoxide/Tween®.
After 72 hours, the plants were contaminated by spraying the leaves with an aqueous bacteria suspension of Xanthomonas campestris pv. campestris. The contaminated cabbage plants were incubated for 8 or 10 days at 27° C. at 95% relative humidity.
The test was evaluated 8 or 10 days after the inoculation. 0% means an efficacy which corresponds to that of the control plants while an efficacy of 100% means that no disease was observed.
Compounds CMP1 and CMP2 were tested in an in vivo preventive test on Xanthomonas campestris pv. campestris (black rot on cabbage) in the same conditions as described in Example B.
Compounds CMP1 and CMP2 were prepared in accordance with the teaching of U.S. Pat. No. 5,534,541.

[4] = test system: salicylate responsive promoter sequence of the PR1 (pathogenesis-related protein 1) gene (AT2G14610); test: Induction of defense gene expression in Arabidopsis thaliana (PR1 promoter-GFP reporter plants); type: in vivo; settings: 300 ppm, 3rd day after spraying; mock treated leaves set as 1.00
Procedure: Arabidopsis thaliana reporter plants containing the coding sequence of a green fluorescent protein (GFP) linked to the salicylate responsive promoter sequence of the PR1 (pathogenesis-related protein 1) gene (AT2G14610) were grown for five days and then sprayed with compounds. On the 3rd day after spraying, plant fluorescence was assessed with a MacroFluo instrument from Leica Microsystems (Wetzlar, Germany). Fluorescences were quantified with the Meta-Morph Microscopy Automation & Image Analysis Software (Molecular Devices, Sunnyvale, Calif., United States). Background fluorescence in mock treated leaves was set as 1.00.

[5] = reversed phase HPLC columns, method [a]: LC-UV, acidic range, 0.1% formic acid in water and acetonitrile
[6] = reversed phase HPLC columns, value of the preparation example, method not marked

| LogP [2] | Structure (SMILES) | direct activity (inhibition of bacteria growth) [1] | other results |
| --- | --- | --- | --- |
| – | O=C(NC1(C(=O)O)CC1)c1sc(Cl)c(Cl)c1Cl [II.03] | no direct activity | – |
| 3.81^[a] | O=C(CNC(=O)c1sc(Cl)c(Cl)c1Cl)OCC1CC1 [II.18] | no direct activity | – |
| 5.04^[a] | CCOC(=O)C(Cc1ccccc1)NC(=O)c1sc(Cl)c(Cl)c1Cl (racemic) [II.26] | – | – |
| 5.20^[a] | CCOC(=O)[C@@H](CC(C)C)NC(=O)c1sc(Cl)c(Cl)c1Cl [II.27] | – | – |
| 4.69^[a] | CC/C=C\CCOC(=O)CNC(=O)c1sc(Cl)c(Cl)c1Cl [II.17] | no direct activity | – |
| 3.21^[a] | CCOC(=O)CN(C)C(=O)c1sc(Cl)c(Cl)c1Cl [II.35] | no direct activity | – |
| 5.00^[a] | CCOC(=O)[C@@H](Cc1ccccc1)NC(=O)c1sc(Cl)c(Cl)c1Cl [II.37] | – | – |
| 3.56^[a] | O=C(NC(Cc1ccccc1)C(=O)O)c1sc(Cl)c(Cl)c1Cl (racemic) [II.32] | – | – |
| 3.60^[a] | O=C(CNC(=O)c1sc(Cl)c(Cl)c1Cl)OCC(F)(F)F [II.07] | no direct activity | – |
| 5.16^[a] | CCOC(=O)[C@H](CC(C)C)NC(=O)c1sc(Cl)c(Cl)c1Cl [II.28] | – | – |
| 4.18^[a] | CCCCOC(=O)CNC(=O)c1sc(Cl)c(Cl)c1Cl [II.11] | no direct activity | – |
| 4.81^[a] | C[Si](C)(C)COC(=O)CNC(=O)c1sc(Cl)c(Cl)c1Cl [II.23] | no direct activity | – |
| 2.40^[a] | CCOC(=O)CNC(=O)c1scc(Cl)c1Cl [XVIa.01] | – | – |
| 3.13^[a] | C#CCOC(=O)CNC(=O)c1sc(Cl)c(Cl)c1Cl [II.20] | no direct activity | – |
| – | COC(=O)C(NC(=O)c1sc(Cl)c(Cl)c1Cl)C(C)C (centres unmarked) [CMP2, reference compound] | – | Efficacy (%) [3]: 0% |
| – | O=C(O)CNC(=O)c1sc(Cl)c(Cl)c1Cl [II.05, N-[(3,4,5-trichloro-2-thienyl)carbonyl]glycine] | – | chromatographic logP [2, 5]: 2.16; chromatographic logP [2, 6]: 2.14 |
| 4.82^[a] | CC[C@H](C)[C@H](NC(=O)c1sc(Cl)c(Cl)c1Cl)C(=O)OC [II.14] | no direct activity | Efficacy (%) [3]: >90% |
| 3.68^[a] | C=CC1CC1(NC(=O)c1sc(Cl)c(Cl)c1Cl)C(=O)OC (mixture of isomers) [II.36] | no direct activity | Efficacy (%) [3]: >90% |
| – | Nc1c(C(=O)O)sc(Cl)c1Cl [XIXc.01, 3-amino-4,5-dichlorothiophene-2-carboxylic acid hydrochloride (1:1)] | – | chromatographic logP ([2]; method [a]: LC-UV, acidic range, 0.1% formic acid in water and acetonitrile): 2.05 |
| 3.99^[a] | CCOC(=O)C(Cc1ccccc1)NC(=O)c1scc(Cl)c1Cl (racemic) [XVIa.02] | – | – |
| 5.00^[a] | CCOC(=O)[C@H](Cc1ccccc1)NC(=O)c1sc(Cl)c(Cl)c1Cl [II.25] | – | – |
| 3.87^[a] | O=C(CNC(=O)c1sc(Cl)c(Cl)c1Cl)OC1CCC1 [II.16] | no direct activity | – |

| LogP [2] | Structure (SMILES) | direct activity (inhibition of bacteria growth) [1] | other results |
| --- | --- | --- | --- |
| 5.22^[a] | CCOC(=O)C(CC(C)C)NC(=O)c1sc(Cl)c(Cl)c1Cl (racemic) [II.04] | no direct activity | – |
| 3.33^[a] | O=C(CNC(=O)c1sc(Cl)c(Cl)c1Cl)OC1CC1 [II.12] | no direct activity | – |
| 4.13^[a] | CC(C)COC(=O)CNC(=O)c1sc(Cl)c(Cl)c1Cl [II.19] | no direct activity | – |
| – | CCOC(=O)C1(NC(=O)c2sc(Cl)c(Cl)c2N)CC1 [XVIIc.01, ethyl 1-{[(3-amino-4,5-dichloro-2-thienyl)carbonyl]amino}cyclopropanecarboxylate] | – | chromatographic logP [2, 5]: 2.77; chromatographic logP [2, 6]: 2.77 |
| – | O=C(O)c1ccccc1O [Salicylic acid] | – | relative fluorescence value [4]: 2.70 |
| 2.49^[a] | COC(=O)C1(NC(=O)c2cc(Cl)c(Cl)s2)CC1 [XVIc.01] | – | – |
| 3.87^[a] | O=C(CNC(=O)c1sc(Cl)c(Cl)c1Cl)Oc1ccccc1 [II.08] | no direct activity | – |
| 3.69^[a] | CC[C@H](C)[C@H](NC(=O)c1sc(Cl)c(Cl)c1Cl)C(=O)O [II.30] | – | – |
| 3.64^[a] | C=CCOC(=O)CNC(=O)c1sc(Cl)c(Cl)c1Cl [II.22] | no direct activity | – |
| 3.63^[a] | CCOC(=O)C(Cc1ccc(O)cc1)NC(=O)c1sc(Cl)c(Cl)c1Cl (racemic) [II.15] | no direct activity | – |
| 3.70^[a] | CCCOC(=O)CNC(=O)c1sc(Cl)c(Cl)c1Cl [II.10] | no direct activity | – |
| – | COC(=O)CNC(=O)c1sc(Cl)c(Cl)c1Cl [II.01, methyl N-[(3,4,5-trichloro-2-thienyl)carbonyl]glycinate] | no direct activity | Efficacy (%) [3]: >90%; chromatographic logP [2, 5]: 2.83; chromatographic logP [2, 6]: 2.8 |
| 4.27^[b] | CC(C)(C)OC(=O)CNC(=O)c1sc(Cl)c(Cl)c1Cl [II.24] | no direct activity | – |
| – | COC(=O)CNC(=O)c1sc(Br)c(Br)c1Br [CMP1, reference compound] | – | Efficacy (%) [3]: 27% |
| 2.83^[a] | O=C(NC(C(=O)O)C1CC1)c1sc(Cl)c(Cl)c1Cl (racemic) [II.33] | – | – |
| – | O=C(CNC(=O)c1sc(Cl)c(Cl)c1Cl)OCc1ccccc1 [II.13] | no direct activity | – |
| 2.98^[a] | COC(=O)C(NC(=O)c1cc(Cl)c(Cl)s1)C1CC1 (racemic) [XVIc.03] | – | – |
| – | CCOC(=O)C1(NC(=O)c2sc(Cl)c(Cl)c2Cl)CC1 [II.02, ethyl 1-{[(3,4,5-trichloro-2-thienyl)carbonyl]amino}cyclopropanecarboxylate] | no direct activity | chromatographic logP [2, 5]: 3.41; chromatographic logP [2, 6]: 3.4 |
| 2.33^[a] | O=C(NC(C(=O)O)C1CC1)c1cc(Cl)c(Cl)s1 (racemic) [XVIc.05] | – | – |
| 3.62^[a] | CC(C)CC(NC(=O)c1sc(Cl)c(Cl)c1Cl)C(=O)O (racemic) [II.31] | – | – |
| 2.59^[a] | CCOC(=O)C1(NC(=O)c2scc(Cl)c2Cl)CC1 [XVIa.03] | – | – |
| 3.67^[a] | CC(C)OC(=O)CNC(=O)c1sc(Cl)c(Cl)c1Cl [II.09] | no direct activity | – |

| Structure (SMILES) | LogP [2] | direct activity (inhibition of bacteria growth) [1] | other results |
| --- | --- | --- | --- |
| COC(=O)C(NC(=O)c1sc(Cl)c(Cl)c1Cl)C1CC1 (racemic) [II.06] | 3.81^[a] | no direct activity | Efficacy (%) [3]: >90% |
| N#CCOC(=O)CNC(=O)c1sc(Cl)c(Cl)c1Cl [II.21] | 2.84^[a] | no direct activity | – |
